The test system of data set [1] is Plasmodium berghei. Briefly: Causal prophylactic activity on OF1 mice infected with Plasmodium berghei. Conditions: for ED50 / ED100 / minimal effective dose: Plasmodium berghei, iv, 3 h; for ED50 / ED100 / minimal effective dose / CPD50, causal prophylactic dose curing 50% of the infected and treated animals / ED100, totally curative dose: single i.v. three hours after sporozoites, mg PQ diphosphate equivalent/kg; for ED50: read-out: CPD50, causal prophylactic dose curing 50% of the infected and treated animals; for ED100: read-out: ED100, totally curative dose; for minimal effective dose: read-out: Minimal effective dose (MED); for Activity relative to PQ, fold as active: model of malaria in mice; for CPD50, fold lower than for PQ: mouse, in vivo; for PQ index: ratio CPD50 of PQ/CPD50 of the compound. The format is in vivo, P. berghei (ANKA), in Swiss OF1 mice. As for the experimental part:
Primaquine and its derivatives are tested in the model of malaria in rodents employing the infection of mice with Plasmodium berghei, the sporozoites originating from infected Anopheles stephensi mosquitoes. This model, developed by Most H., Herman R. & Schoenfeld C. (1967), Am. J. Trop. med. Hyg. 16, 572-575, enables the casual prophylatic (tissue schizonticidal) activity of new therapeutic compounds to be determined.
The procedure used is that derived from Most H. & Montuori W.A. (1975), Am. J. Trop. Med. Hyg. 24, 179-189. It involves the system P. berghei (ANKA)/Anopheles stephensi/Swiss OF1 mice. The ANKA strain of P. b. berghei is maintained cyclically on Anopheles stephensi. The Swiss OF1 strain mouse is especially sensitive to P. b. berghei, which produces an invariably fatal infection.
The legs, wings and abdomen are removed from female mosquitoes (80 to 100 individuals per preparation) and the latter are then homogenized at 4° C. in MEM medium (GIBCO) containing 10% of fetal calf serum using a glass Potter. The sporozoite suspension is then purified from the mosquito debris by two successive centrifugations (2 min at 50 g and 5 min at 200 g) and the collected supernatant is stored at 4° C. After counting in a Petroff-Hausser chamber, the number of parasites is adjusted by dilution with the same cold medium to a density of 2×10^5 sporozoites/ml.
The causal prophylactic activity of the compounds, that is to say the dose enabling 50% of the infected animals to be cured (CPD50) is obtained by analysis of the logits of the response (expressed as a % LTS) as a function of the dose (mg PQ/kg).
A volume of 0.5 ml of the suspension containing 10^5 sporozoites is injected i.v. into female Swiss OF1 mice weighing 20 to 25 g, used for the therapeutic tests. 1.2. Chemotherapeutic treatments
Groups of 20 to 25 mice, infected as described above, are treated with a single intravenous injection of primaquine diphosphate (PQ) or of its two derivatives in hydrochloride form, three hours after inoculation of the sporozoites. The volume injected is adjusted according to the weight of the mouse, on the basis of 0.25 ml for a weight of 25 g. The compounds are diluted in phosphatebuffered saline (PBS), pH 7.0, and the pH is adjusted to 7.0. Infected but untreated mice (5 per group), receive the buffer alone and serve to monitor the infectivity of the sporozoites.
The experimental mice are kept for a period of 50 days. The development of the parasitemia is followed by daily examination of blood smears stained for 60 min with 5% Giemsa in Sorensen buffer at pH 7.2, from day 5 up to day 15. The number of infected animals can thus be determined.
The animals infected using P. berchei sporozoites are treated three hours later with a single i.v. injection of the compounds. This test enables the casual prophylactic activity of the compounds, that is the dose enabling 50% of the infected animals to be cured (CPD50), to be defined. The dose is always expressed as mg of PQ diphosphate per kg.
The animals infected using P. berghei sporozoites are treated three hours later with a single i.v. injection of the compounds. This test enables the casual prophylactic activity of the compounds, that is the dose enabling 50% of the infected animals to be cured (CPD50), to be defined. The dose is always expressed as mg of PQ diphosphate per kg.

For a further data set, the system named is female Swiss OF1 mice. Briefly: Acute toxicity in mice after a single i.v. administration. The format is in vivo. Conditions: for Fold less toxic than PQ: mice, i.v.; for LD50 / Maximum tolerated dose (MTD): single i.v., mg PQ diphosphate equivalent/kg; for Maximum tolerated dose (MTD): weight loss not exceeding 5% during 5 days. As for the experimental part: (§1) The acute toxicity in terms of a single administered dose is determined on female Swiss OF1 mice weighing 22 to 25 g. A series of dilutions of each compound is injected intravenously into groups of 10 mice (0.1 ml per 10 g of weight).
(§2) The lethal dose for 50% of mice (LD50) is determined by linear regression of the logits of the percentage of surviving animals as a function of the logarithm of the dose injected (in mg PQ diphosphate equivalent/kg) (Logit Weighted Transformation, Berkson J., 1953; J. Am. Stat. Assoc. 48, 565-599).
(§3) ^a : The products are administered i.v. to groups of 10 female Swiss
(§4) ^b : Maximum tolerated dose (MTD), defined as the highest dose
(§5) The acute toxicity in terms of a single administered dose is determined under the same conditions and according the protocol of Example 3.

Test in data set [2]: as above
As to conditions: mouse, in vivo, iv, single i.v., mg PQ diphosphate equivalent/kg; for MTD: weight loss not exceeding 5% during 5 days, read-out: Maximum tolerated dose (MTD). The format is in vivo. The protocol:
as §1, §2, §3, §4, §5

Data set [3] has as its system Plasmodium berghei. Briefly: Therapeutic index in mice. In kind it is in vivo, P. berghei. Conditions: mice, i.v. From the text: The therapeutic index is defined as the ratio of the toxicity, expressed as LD50, to the therapeutic activity, expressed as CPD50, in mice.
^b : The therapeutic index (TI) is the ratio of LD50 to […]

Where “and” joins values, the source holds several entries; their conditions need not be identical. Identical values can stand only once.

Usually minimal effective dose stands for the lowest level tested that produced the effect sought. Broadly, the MTD is the highest dose tested that stayed within the study's limit of toxicity. As for `COc1cc(NC(C)CCCNC(=O)[C@@H](N)CC(=O)O)c2ncccc2c1` (stereo partly drawn) [ASP-PQ, N-(α-L-aspartyl)-PQ], in the data set on Plasmodium berghei [1], the ED50 is 11.6 mg/kg; the ED100 is 31 mg/kg; the minimal effective dose was 4.4 mg/kg; the “Activity relative to PQ, fold as active” value was 1.6 -fold. In the data set on Plasmodium berghei [1], the “CPD50, fold lower than for PQ” value is given as 1.6 -fold; the PQ index was found to be 1.62; the “CPD50, causal prophylactic dose curing 50% of the infected and treated animals” value is listed as 11.6 (0.9) mg/kg; the “ED100, totally curative dose” value is on record as 31.1 (9.2) mg/kg. For the same molecule, in the data set on female Swiss OF1 mice, the “Fold less toxic than PQ” value is “at least 5 -fold”; the LD50 is 165.5 (5.4) mg/kg and 165 (5.4) mg/kg; the “Maximum tolerated dose (MTD)” value is reported as 107.2 (14.2) mg/kg. In data set [2], the LD50 turned out to be 165 mg/kg and the MTD is 107 mg/kg. For the same molecule, the “Therapeutic index, fold higher than that of PQ” value in the data set with Plasmodium berghei [3] is “at least 8 -fold”.
On to `COc1cc(NC(C)CCCNC(=O)C[C@H](N)C(=O)O)c2ncccc2c1` (stereo partly drawn) [βASP-PQ, N-(β-L-aspartyl)-PQ], for which, in the data set on Plasmodium berghei [1], the ED50 turned out to be 11.2 mg/kg; the ED100 was found to be 31 mg/kg; the minimal effective dose was found to be 4.1 mg/kg; the “Activity relative to PQ, fold as active” value is given as “at least 1.6 -fold”. Moreover, in the data set on Plasmodium berghei [1], the “CPD50, fold lower than for PQ” value is on record as 1.6 -fold; the PQ index is given as 1.68; the “CPD50, causal prophylactic dose curing 50% of the infected and treated animals” value is listed as 11.2 (0.7) mg/kg; the “ED100, totally curative dose” value is on record as 30.6 (5.7) mg/kg. Moreover, in the data set with female Swiss OF1 mice, the “Fold less toxic than PQ” value is recorded as “at least 5 -fold”; the LD50 was 164.4 (6.2) mg/kg and 164 (6.2) mg/kg; the “Maximum tolerated dose (MTD)” value was 109.1 (13.1) mg/kg. Moreover, in data set [2], the LD50 was 164 mg/kg and the MTD came to 109 mg/kg. Moreover, in the data set on Plasmodium berghei [3], the “Therapeutic index, fold higher than that of PQ” value is listed as 8 -fold.

(Values after US5110935A, “New compounds which are active against the tissue forms of malaria and method of preparation” (Ire-Celltarg, S.A., priority 1988, dated 1992).)
